Test results published in US20250295610A1, “NEUROPROTECTIVE AGENTS FOR USE IN THE TREATMENT OF OPTIC NEUROPATHIES” (The Board of Trustees of the Leland Stanford Junior …, priority 2021, published 2025).
“Also recorded” adds a separate entry of the source.

Legend:
[1] = test system: CHOP promoter-driven luciferase (CHOP-Luc) in HEK293T cells; experiment: CHOP-Luc reporter cell-based assay (HTS and retest); set-up: species or system human; settings: Tm/Tg 1 μM; for CHOP-luciferase activity: compound at 20 μM, 24 hours (FIG. 9e); for CHOP-luciferase activity induced by ER stress (Tm/Tg): compound at 10 µM, relative to DMSO (FIG. 1d)
Experimental: ER stress reporter cell lines.
Cell-based HTS. The HTS to identify CHOP expression inhibitors was performed at the Stanford High-Throughput Bioscience Center with small molecule libraries containing 4846 total known bioactive, FDA approved drugs and clinical trial compounds; libraries included Biomol FDA, Biomol ICCB, Microsource (MS) Spectrum, Sigma LOPAC, and NIH Clinical Collection (NIH-CC). All the compounds were run in 7-point dose response based on a previous publication; except the NIH Clinical collection (446 compounds) which were tested in duplicate due to the small quantity of compounds on hand. Most of the NIH-CC was screened at 10 µM, but this varied per compound. […] We used the Pin Tool to transfer 100 nL of the compounds into 50 μL final volume. Therefore, we did a 500-fold dilution of the stock plates, which were at 10, 5, 2.5, 1.25, 0.625, 0.3125, and 0.156 mM resulting in final concentrations of 20, 10, 5, 2.5, 1.25, 0.625, and 0.3125 µM (for most of the compounds but not all). The final DMSO concentration was 0.2% for all wells. Briefly, CHOP-Luc cells were seeded in 384-well plates (Greiner Bio-One […]) at a density of 2×10^5 cells per well in 40 μL medium and cultured for 24 hours before treatment with tunicamycin (Tm)+thapsigargin (Tg) at 1 μM in 10 μL medium followed by adding 100 nL of one of the testing compounds using a Staccato SciClone ALH3000 small molecule liquid handling system (Caliper Life Sciences) and V&P Scientific 384 pin tools. AeraSeal sterile adhesive microplate seals (Excel Scientific; Victorville, CA) were used to seal plates that were incubated at 5% CO2, 37° C. for 24 hours, when luciferase activity was assayed by adding 10 μL of Bright™-Glo Luciferase reagent (Promega) to each well and detected by a Tecan Infinite M1000 Pro plate reader. Percentage of CHOP-Luc inhibition=100%−(Compound value−DMSO control value)/(Tm/Tg value−DMSO control value)×100%. The compounds achieving >30% of CHOP-Luc inhibition were considered as “hits”. Luciferase activity of all the tested compounds was determined by meta-analysis of luciferase activity in different cell lines under the control of a generic or other promoters. Any compound that appeared in more than 3 non-related luciferase screens was likely a toxic compound or luciferase inhibitor and therefore eliminated. There was no true cutoff, other than an IC50<20 µM (or the highest concentration tested).

[2] = test system: three UPR pathways induced by ER stress (Tm/Tg) in HEK293T cells; experiment: UPR signaling cascades in HEK293T cells (immunoblot, RT-PCR, qPCR); type: cell-based, human; settings: Tm/Tg 1 μM; for UPR pathways induced by ER stress: HEK293T cells, compound 10 μM; for XBP-1 mRNA splicing: RT-PCR
[3] = test system: ONC-induced ER stress in RGCs; experiment: ER stress molecules in RGCs and ONs after ON crush (ONC); settings: mouse, after traumatic ON injury, in vivo application
Experimental: Protein Preparation and Immunoblotting. Cell and tissue lysates were prepared in RIPA buffer (Themo Fisher Scientific, 89901) and supplemented with Halt Protease inhibitor cocktail (Themo Fisher Scientific, PI78437). The total protein concentration of lysates was measured by the Pierce BCA Protein Assay Kit (Thermo Fisher Scientific, 23227). 20 μg protein of each sample were denatured at 95° C. for 15 min in 100 mM DTT+1× Laemmli buffer before being separated by SDS-PAGE. We then transferred the protein samples to 0.2 μm nitrocellulose membranes (Bio-Rad, 1610097) and blocked with 5% BSA for 2 hours. Subsequently, the membranes were incubated with primary antibodies (1:1000) overnight at 4° C. After washing in TBST, these membranes were incubated with horseradish peroxidase-conjugated secondary antibodies (Cell Signaling, 7074S and 7076S, 1:1000) and visualized using a GE-A1600 imaging system. Images were quantified with ImageJ software. The primary antibodies used were PERK (Cell Signaling, 3192S), p-PERK (Cell Signaling, 3179S), eIF2a (Cell Signaling, 5324S), p-eIF2a (Cell Signaling, 3597L), ATF4 (Cell Signaling, 11815S), CHOP (Cell Signaling, 2895S), ATF6 (Cell Signaling, 65880T), IRE1a (Cell Signaling, 3294T), IRE1 (phosphor-S724) (Thermo Fisher, PA116927), phospho-SAPK/JNK (Thr183/Tyr185) (Cell Signaling, 9251S), phospho-p38 MAPK (Thr180/Tyr182) (Cell Signaling, 9215S), β-Actin (sigma, A5441), XBP-1s (Biolegend, 647502), XBP-1 (Santa Cruz, sc-8501), anti-RBPMS (Custom made at ProSci Inc).
ON crush model. The ON was exposed intraorbitally while care was taken not to damage the underlying ophthalmic artery, and crushed with a jeweler's forceps (Dumont #5; Fine Science Tools, Foster City, California) for 5 seconds approximately 0.5 mm behind the eyeball. Eye ointment containing neomycin (Akorn, Somerset, New Jersey) was applied to protect the cornea after surgery. For compound treatment, each eye received intravitreal injection with 2 μl of 2 mM test compounds once and intraperitoneal (i.p.) injection daily (15 mg/kg) for 14 days after ONC. […]

[4] = test system: RGC somata and axons, mouse ONC model; experiment: Neuroprotection in traumatic ON crush (ONC) model; type: in vivo; settings: for neuroprotection of RGCs and ONs: mouse ONC model, traumatic ON injury; for GCC thickness by OCT: mouse ONC, intravitreal 2 μl of 2 mM once + i.p. 15 mg/kg daily, vs DMSO
Experimental: ON crush model. The ON was exposed intraorbitally while care was taken not to damage the underlying ophthalmic artery, and crushed with a jeweler's forceps (Dumont #5; Fine Science Tools, Foster City, California) for 5 seconds approximately 0.5 mm behind the eyeball. Eye ointment containing neomycin (Akorn, Somerset, New Jersey) was applied to protect the cornea after surgery. For compound treatment, each eye received intravitreal injection with 2 μl of 2 mM test compounds once and intraperitoneal (i.p.) injection daily (15 mg/kg) for 14 days after ONC.

[5] = test system: CHO luciferase reporter cell line driven by murine CHOP promoter; settings: different CHO luciferase reporter cell line; cited from earlier work
[6] = test system: visual function, mouse SOHU glaucoma model; experiment: Visual function (PERG, OKR) in SOHU glaucoma model; type: in vivo; settings: 3wpi, vs DMSO
Experimental: Control groups received the same volume of DMSO as vehicle control.
Pattern Electroretinogram (PERG) recording. After anesthetization and pupil dilation, PERG of both eyes was recorded simultaneously with the Miami PERG system (Intelligent Hearing Systems, Miami, Florida) according to manufacturer's instructions. Two consecutive recordings of 200 traces were averaged to achieve one readout; each trace recorded up to 1020 ms. The first positive peak in the waveform was designated as P1 and the second negative peak as N2. The amplitude was measured from P1 to N2.
Optokinetic Tracking Response (OKR). Mice were placed on a platform in the center of four 17-inch LCD computer monitors (Dell, Phoenix, AZ), with a video camera above the platform to capture the movement of the mouse. A rotating cylinder with vertical sine wave grating was computed and projected to the four monitors by OptoMotry software (Cere-bralMechanics Inc, Lethbridge, Alberta, Canada). […] The maximum frequency (cycle/degree) that the mouse could track was identified and recorded by investigators masked to treatment. The relative percentages of visual acuity were calculated as the ratio of maximum frequency in disease eye compared to contralateral control eye.

[7] = test system: XBP-1-Luc HEK293T reporter cell line (IRE1α activity and XBP-1 splicing); settings: Tm/Tg 1 μM, 24 hours
[8] = mouse, 6 and 24 hours after injection
Experimental: Retinal tissues were homogenized with 100 μL of pre-chilled 20% acetonitrile and then diluted 2-fold with blank mouse plasma. An aliquot of 20 μL of diluted retina homogenate was extracted with 100 μL of methanol: acetonitrile (5:95, v: v) containing the internal standard (Verapamil). The mixture was shaken on a shaker for 15 minutes and then centrifuged at 3220 g for 15 minutes. An aliquot of 70 μL of the supernatant was mixed with 70 μL of water for the injection to the LC-MS. Calibration standards and quality control samples were prepared by spiking 2 μL of the test compound into 18 μL of blank mouse plasma, and the resulting plasma was processed with the unknown samples in the same batch. The extracts were analyzed by a Shimadzu LC-30AD interfaced to a Sciex API 5000 system. The extracts were injected onto an ACE 3 C18 column (50×2.1 mm, 3.0 μm) and separated by the gradient elution using water with 10 mM ammonium acetate (A) and acetonitrile with 0.1% formic acid (B) as mobile phases. The gradient program started at 10% B, held for 0.2 min, ramped to 95% B at 1.5 min, remained at 95% at 2.4 min, dropped to 10% B at 2.45 min, and stayed at 10% B till 3.2 min. […] The calibration curve fitted by linear regression was used to quantify the analytes in the matrix using Analyst software 1.6.2 (Sciex).

HEK293T cells = HEK293T cells expressing jGCaMP7s, Tm/Tg 1 μM
Experimental: HEK293T cells were seeded at 10% confluence the day before transfection in poly-D-lysin-coated glass bottom 35 mm dishes (MatTek, P35GC1.510C). Two hours prior to transfection, media was removed and 1 mL of FBS-free DMEM media was added to each well. We then mixed 2 μg of the jGCaMP7s plasmid in 100 μl DMEM. In a separate tube, we diluted 4 μl PolyJet™ (SignaGen Laboratories, SL100688) reagent in 100 μl with DMEM, and incubate for 10 minutes. The complete mixture of DNA and PolyJet was incubated for another 15 min before being added to the HEK293T cells. Six hours later, the media was changed to 1 ml/well culture media. The next day, cytosolic Ca^2 + was imaged in cells transiently transfected with jGCaMP7s through a Zeiss LSM 800 confocal microscope. Dynamic intracellular Ca^2 + influx in response to Tm/Tg-induced ER stress was measured every 10 seconds for 100 seconds before Tm/Tg treatment to acquire baseline fluorescence (F0) and for 400 seconds after Tm/Tg administration to acquire F1. ΔF=F1−F0. Data were analyzed with ImageJ.

RGCs expressing jGCaMP7s = settings: living mice, SLO, early and later time points after ONC
Experimental: In vivo RGC Ca^2 + imaging with SLO. The mice were intravitreally injected with AAV2-mSncg-jGCaMP7s (9×10^9 vg/retina) 4 weeks before imaging. The mice were anesthetized by xylazine and ketamine after dark adaptation for 30 minutes. Mydriasis was achieved by applying a drop of 1% tropicamide solution and a drop of 2.5% phenylephrine hydrochloride solution, which prevents pupillary contraction during recording. Right after ON crush, the mice were placed on a 3D-printed mouse holder with a 37° C. heater, and a custom-made+10D mouse contact lens (3.0 mm diameter, 1.6 mm BC, PMMA clear, Advanced Vision Technologies) attached to keep the cornea from drying. The retinal fundus was imaged by the Heidelberg Spectralis SLO/OCT system (Heidelberg Engineering, Germany) with a 55° lens using the fluorescein angiography scanning mode under the same sensitivity (sensitivity 75-85) and high-resolution (1536×1536 pixels).

RGCs expressing D4ER = settings: mouse retina explants after ONC
Experimental: Ex vivo ER Ca^2 + imaging in retina explants. ER calcium levels were measured using the Forster resonance energy transfer (FRET)-based ER targeted calcium sensor, D4ER. […] For imaging, retinas were dissected out at 3, 7 or 14dpc and plated onto laminin (Sigma, L2020) and poly-D-lysin-coated glass bottom dishes (MatTek, P35GC1.510C) and maintained in Neurobasal-A medium (ThermoFisher Scientific, 10888022) supplemented with L-glutamine (Gibco, 25030-081), penicillin/streptomycin (Gibco, 15140122) and B-27 (ThermoFisher Scientific, 0080085SA). Retina explants were imaged using a Zeiss LSM 800 microscope. ER [Ca^2 +] levels were determined by exciting D4ER at 440 nm to record the emitted light at 465-485 nm and 530-550 nm, and analyzed with ImageJ.

[9] = test system: naïve mouse retinas and ON; settings: one month after systemic administration
Experimental: Immunohistochemistry of whole mount and cross sections of retina. After perfusion fixation with 4% PFA in PBS, mice eyeballs and ONs were dissected out and post-fixed with 4% PFA for 2 hours at room temperature. Retinas were dissected out for whole mount retina immunostaining. For cryo-section with Leica cryostat, the eyeballs and ONs were embedded in tissue-tek OCT (Sakura) on dry ice for subsequent cryo-section. The sections were blocked with 10% goat serum (Sigma, G9023) for 2 hours before incubating with primary antibodies: RBPMS 1:4000, others 1:200 overnight at 4° C. […]
RGC counting. Whole-mount retinas were immunostained with the RBPMS antibody, 6-8 fields randomly sampled from peripheral regions of each retina using a 40× lens with a Zeiss M2 epifluorescence microscope, and RBPMS+RGCs counted by Volocity software (Quorum Technologies). The percentage of RGC survival was calculated as the ratio of surviving RGC numbers in injured eyes compared to contralateral uninjured eyes. The investigators who counted the cells were masked to the treatment of the samples.
ON semi-thin sections and quantification of surviving axons. […] Two areas of 21.4 μm×29.1 μm were cropped from the center of each image, and the surviving axons within the designated areas counted manually using ImageJ. […]

[10] = HEK293T, immunoblot, 10 μM, 24 hours

Structure (SMILES)	CHOP-luciferase activity [1]	CHOP-luciferase activity induced by ER stress (Tm/Tg) ([1]; 24 hours)	UPR pathways induced by ER stress [2]	RGC ER stress [3]	neuroprotection of RGCs and ONs [4]	GCC thickness by OCT ([4]; 14dpc)	further results
Cn1cc(-c2ccc3c(c2)CCN3C(=O)Cc2cccc(C(F)(F)F)c2)c2c(N)ncnc21 [GSK2606414]							CHOP-luciferase activity induced by Tm/Tg, reference compounds ([1]; FIG. 1d and FIG. 9e (10 µM and 20 μM), 24 hours): significantly inhibited
CN(C)CCC=C1c2ccccc2CCc2ccccc21 [amitriptyline]	inhibited						
Clc1ccc2c(c1)C(N1CCNCC1)=Nc1ccccc1O2 [amoxapine]		significantly inhibited	inhibit all three UPR pathways	effectively inhibits	significantly protects	significantly thicker	XBP-1 mRNA splicing ([2]; HEK293T, 10 μM, 24 hours): significantly inhibited
O=C(COc1ccc(Cl)cc1)NC1CCC(NC(=O)COc2ccc(Cl)cc2)CC1 (stereo not drawn) [ISRIB]		no effect; also recorded: did not have a significant inhibition effect			provided neuroprotection in the ONC mouse model, to a lesser degree than maprotiline; also recorded: significant neuroprotection		
CN1CCN(CCCN2c3ccccc3Sc3ccc(C(F)(F)F)cc32)CC1 [trifluoperazine]	inhibited						CHOP inhibitor in a previous study [5]: CHOP inhibitor
CNCCCC12CCC(c3ccccc31)c1ccccc12 [maprotiline]		significantly inhibited	inhibit all three UPR pathways	effectively inhibits	significantly protects	significantly thicker	downstream genes of UPR at the mRNA levels (qPCR) ([2]; HEK293T, 12 hours, 10 µM): the most striking modulation; XBP-1 mRNA splicing ([2]; HEK293T, 10 μM, 24 hours): significantly inhibited; IRE1α phosphorylation [2, 10]: inhibited; JNK phosphorylation [2, 10]: significantly inhibited; amplitude of PERG [6]: improved; visual acuity (OKR) [6]: improved; XBP-1 splicing induced by Tm/Tg (XBP-1s-Luc) [7]: dose-dependent inhibition; maprotiline in the retina after i.p. injection (LC-MS) [8]: presence of maprotiline in the retina; Tm/Tg-induced intracellular Ca2+ influx (HEK293T cells): significantly blocked; intra-RGC Ca2+ levels after ONC (RGCs expressing jGCaMP7s): significantly decreased; ER Ca2+ concentration of RGCs after ONC (D4ER FRET) (RGCs expressing D4ER): maintained ER Ca^2 + concentration at much higher levels; RGC or ON degeneration [9]: no RGC or ON degeneration; immune cell infiltration in retina and ON [9]: no immune cell infiltration
CN(C)CCCN1c2ccccc2CCc2ccc(Cl)cc21 [clomipramine]	inhibited						
CNCCCN1c2ccccc2CCc2ccccc21 [desipramine]	inhibited						
COc1ccc2c(c1)CC[C@@H]1[C@@H]2CC[C@]2(C)[C@@H](NCCCCCCN3C(=O)C=CC3=O)CC[C@@H]12 [U-73122]							protection of RGC axons ([4]; mouse, after ONC injury, 14dpc): protected; protection of RGC somata ([4]; mouse, after ONC injury, 14dpc): protected
Clc1ccc2c(c1)CCc1cccnc1C2=C1CCNCC1 [desloratadine]			inhibit all three UPR pathways	effectively inhibits	significantly protects	significantly thicker	JNK phosphorylation [2, 10]: significantly inhibited
